The record followed here is patent US11999746B2, “Compounds” (GlaxoSmithKline Intellectual Property Development Limited, priority 2014, dated 2024).

Where a name gives a salt, the structure may show the parent alone. Where only a bound is given, the exact number is not on record here.

The first test deals with T1, Lp-PLA2 in human plasma (Homo sapiens, UniProt Q13093).
T1 construct: from tissue; host or cells: pooled human plasma
T1 sequence (Q13093 22-441): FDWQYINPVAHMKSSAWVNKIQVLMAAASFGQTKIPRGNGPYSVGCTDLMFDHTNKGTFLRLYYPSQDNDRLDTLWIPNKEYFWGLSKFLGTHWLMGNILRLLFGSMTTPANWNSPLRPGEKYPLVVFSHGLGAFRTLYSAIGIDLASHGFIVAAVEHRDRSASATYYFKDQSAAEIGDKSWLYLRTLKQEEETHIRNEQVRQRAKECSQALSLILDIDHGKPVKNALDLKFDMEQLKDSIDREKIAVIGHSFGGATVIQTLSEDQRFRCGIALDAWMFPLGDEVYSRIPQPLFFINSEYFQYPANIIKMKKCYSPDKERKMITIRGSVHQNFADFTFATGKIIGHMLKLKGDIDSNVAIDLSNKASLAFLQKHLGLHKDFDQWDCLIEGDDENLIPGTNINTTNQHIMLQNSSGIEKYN
Description: (3b) Lp-PLA2 human plasma alternative Thio-PAF assay. The class given is biochemical. As to conditions: (3b) alternative Thio-PAF assay, pooled human plasma; Examples of 266-412 were tested here; read-out: pIC50 in the Lp-PLA2 human plasma assay (converted). The procedure: (3b) Alternative Thio-PAF Assay
The human plasma assay utilizes the same thioester analog of PAF as described in (1b) “hr ThioPAF” assay. This assay may detect the activity of Lp-PLA2 in human plasma, as determined by specific inhibition by Lp-PLA2 inhibitors.
The thio-PAF assay was run as a quenched 20 μL assay. Compounds source plate was prepared by making 1:3 (by volume) serial dilution of the compounds into pure DMSO on 96-well microplate. 5 μL of compounds on compound source plate were transferred to 96-well Corning 3686 (black) low-volume plates by STAR+(Hamilton) liquid dispenser. 10 μL pooled human plasma, which was previously aliquoted and frozen, was added. Plates were centrifuged for 30 sec at 1000 rpm. After 15 minutes preincubation at room temperature, 5 μL of substrate solution comprising 2 mM 2-thio-PAF [from ethanol stock], 52 μM CPM [from a DMSO stock] and 2.5 mM NEM (N-ethylmaleimide) [made fresh daily in DMSO] in assay buffer (50 mM HEPES, pH 7.4, 150 mM NaCl, 1 mM CHAPS) was added to 96-well Corning 3686 (black) low-volume plates. After 3 mins, reaction was quenched with 10 μL of 5% aqueous trifluoroacetic acid (TFA). Plates were centrifuged 30 sec at 1000 rpm, covered to protect from light and incubated for 10 min at room temperature. Plates were read at ex: 380 nm/em: 485 nm using Envision plate reader (Perkin Elmer). Raw data were transferred to Excel software and pIC50 data, curve and QC analysis was conducted by using XL fit module in Excel.
With `CN1CC2Cn3c(cc(OCc4ccc(F)c(F)c4)nc3=O)N2CC1=O` (centres unmarked) [Example E359, 7-((3,4-Difluorobenzyl)oxy)-2-methyl-11,11a-dihydro-1H-pyrazino[1,2′:3,4]imidazo[1,2-c]pyrimidine-3,9(2H,4H)-dione], the IC50 is no more than 0.1 µM.

For the compound `CCOC(=O)C(C)N1CCN2c3cc(OCc4ccc(F)c(F)c4)nc(=O)n3CC2C1` (single isomer, unassigned) [Example E327, Ethyl 2-(7-((3,4-difluorobenzyl)oxy)-9-oxo-3,4,11,11a-tetrahydro-1H-pyrazino[1′,2′:3,4]imidazo[1,2-c]pyrimidin-2(9H)-yl)propanoate], the IC50 was no more than 0.1 µM.

For another test, the target named is T2, recombinant human Lp-PLA2 (Homo sapiens, UniProt Q13093).
T2 sequence (Q13093 22-441): T1 sequence (Q13093 22-441)
Description: (1b) hrThioPAF assay, recombinant human Lp-PLA2. The format is biochemical. As to conditions: Examples 266-412 were tested here, one experiment or average of multiple experiments, read-out: rhLp-PLA2 (pIC50) (converted). From the text: 1-O-Hexadecyl-2-deoxy-2-thio-S-acetyl-sn-glyceryl-3-phosphorylcholine (2-thio-PAF) is a substrate for PAF-hydrolases (PAF-AH) commercially available from Cayman Chemical. Upon cleavage with PAF-AH, the free thiol is released at the sn-2 position and can then react with 7-diethylamino-3-(4′-maleimidylphenyl)-4-methylcoumarin (CPM) a thiol-reactive coumarin. This reaction (Michael addition) results in an increase in fluorescence. Inhibitors of Lp-PLA2 therefore prevent this cleavage and no fluorescent increase is observed.
The Thio-PAF assay was run as an unquenched 20 μL assay. The source plate containing the compounds to be tested was prepared by making 1:3 (by volume) serial dilution of the compounds within DMSO on 384-well microplate. Then, 5 μL of the compounds on compound source plate were transferred into 384 well Greiner 784076 (black) plates using STAR+(Hamilton) liquid dispenser. 10 μL of recombinant human Lp-PLA2 enzyme (20 pM rhLp-PLA2 in assay buffer of 50 mM HEPES, pH 7.4, 150 mM NaCl, 1 mM CHAPS) was added to each well of the plate. 5 μL of substrate comprising 40 μM 2-thio-PAF [from ethanol stock], 40 μM CPM [from a DMSO stock] and 400 μM NEM (N-ethylmaleimide) [made fresh daily in DMSO] in assay buffer (50 mM HEPES, pH 7.4, 150 mM NaCl, 1 mM CHAPS) was added to 384 well Greiner 784076 black plates. Plates were vortexed for 10 sec. The plate was covered to protect it from light and incubated for 20 min at 25° C. The plates were read for fluorescence intensity at ex: 380 nm/em: 485 nm using Envision plate reader (Perkin Elmer). Raw data were transferred to Excel software and pIC50 data, curve and QC analysis was conducted by using XL fit module in Excel.
Regarding `CN1CC2Cn3c(cc(OCc4ccc(F)c(F)c4)nc3=O)N2CC1=O` (centres unmarked) [Example E359, 7-((3,4-Difluorobenzyl)oxy)-2-methyl-11,11a-dihydro-1H-pyrazino[1,2′:3,4]imidazo[1,2-c]pyrimidine-3,9(2H,4H)-dione], the IC50 was no more than 10 µM. The same measure, in the same setting: next, `O=c1nc(OCc2cccc(F)c2F)cc2n1CC1CS(=O)(=O)CCN21` (centres unmarked) [Example E363, 7-((2,3-Difluorobenzyl)oxy)-3,4,11,11a-tetrahydropyrimido[6′,1′:2,3]imidazo[5,1-c][1,4] thiazin-9(1H)-one 2,2-dioxide]: no more than 10 µM; `N#Cc1cc(COc2ccc(COc3cc4n(c(=O)n3)CC3CNC(=O)CN43)cc2C#N)ccc1F` (centres unmarked) [Example E350, 5-((2-cyano-4-(((3,9-dioxo-2,3,4,9,11,11a-hexahydro-1H-pyrazino[1′,2′:3,4]imidazo[1,2-c]pyrimidin-7-yl)oxy)methyl)phenoxy)methyl)-2-fluorobenzonitrile]: no more than 10 µM. Turning to `N#Cc1cc(COc2ccc(COc3cc4n(c(=O)n3)CC3CSCCN43)cc2C#N)ccc1F` (centres unmarked) [Example E365, 5-((2-Cyano-4-(((9-oxo-1,3,4,9,11,11a-hexahydropyrimido[6′,1′:2,3]imidazo[5,1-c][1,4]thiazin-7-yl)oxy)methyl)phenoxy)methyl)-2-fluorobenzonitrile], the IC50 was no more than 10 µM. Consider `O=c1nc(OCc2ccc(F)c(Cl)c2)cc2n1CC1CNCCN21` (centres unmarked) [Example E277, 7-((3-Chloro-4-fluorobenzyl)oxy)-3,4,11,11a-tetrahydro-1H-pyrazino[1′,2′:3,4] imidazo [1,2-c]pyrimidin-9(2H)-one], for which the IC50 was no more than 10 µM.

Take `O=c1nc(NCc2ccc(F)c(F)c2)cc2n1CC1CSCCN21` (centres unmarked) [Example E374, 7-((3,4-Difluorobenzyl)amino)-3,4,11,11a-tetrahydropyrimido[6′,1′:2,3]imidazo[5,1-c][1,4]thiazin-9(1H)-one]: the IC50 is no more than 10 µM. The same measure, in the same setting: next, `N#Cc1cc(CNc2cc3n(c(=O)n2)CC2CNCCN32)ccc1F` (centres unmarked) [Example E319, 2-Fluoro-5-(((9-oxo-2,3,4,9,11,11a-hexahydro-1H-pyrazino[1′,2′:3,4]imidazo[1,2-c]pyrimidin-7-yl)amino)methyl)benzonitrile hydrochloride]: no more than 10 µM. Regarding `O=c1nc(OCc2ccc(F)c(F)c2)cc2n1CC1(CCN(S(=O)(=O)C3CC3)CC1)N2` [Example 410, 1′-(Cyclopropylsulfonyl)-7-((3,4-difluorobenzyl)oxy)-1H-spiro[imidazo[1,2-c]pyrimidine-2,4′-piperidin]-5(3H)-one], the IC50 was no more than 0.001 µM.

Regarding `N#Cc1cc(CCOc2cc3n(c(=O)n2)CC2(CCOCC2)N3)ccc1F` [Example 404, 2-Fluoro-5-(2-((5-oxo-2′,3,3′,5,5′,6′-hexahydro-1H-spiro[imidazo[1,2-c]pyrimidine-2,4′-pyran]-7-yl)oxy)ethyl)benzonitrile], the IC50 is no more than 10 µM. Turning to `N#Cc1cc(COc2cc3n(c(=O)n2)CC2CNCCN32)ccc1OC1CCCC1` (centres unmarked) [Example E317, 2-(Cyclopentyloxy)-5-(((9-oxo-2,3,4,9,11,11a-hexahydro-1H-pyrazino[1,2′:3,4]imidazo[1,2-c]pyrimidin-7-yl)oxy)methyl)benzonitrile], the IC50 was no more than 0.1 µM. For `O=C1CN2c3cc(OCc4cccc(F)c4F)nc(=O)n3CC2CN1` (centres unmarked) [Example E348, 7-((2,3-Difluorobenzyl)oxy)-11,11a-dihydro-1H-pyrazino[1′,2′:3,4]imidazo[1,2-c]pyrimidine-3,9(2H,4H)-dione], the IC50 is no more than 10 µM. On to `Cc1ccc(COc2cc3n(c(=O)n2)CC2CNCCN32)cc1C#N` (centres unmarked) [Example E271, 2-Methyl-5-(((9-oxo-2,3,4,9,11,11a-hexahydro-1H-pyrazino[1′,2′:3,4]imidazo [1,2-c]pyrimidin-7-yl)oxy)methyl) benzonitrile], for which the IC50 was no more than 10 µM.

As to `Cn1cc(Oc2c(F)cc(COc3cc4n(c(=O)n3)CC3(COC3)N4)cc2F)cn1` [Example E393], the IC50 is no more than 10 µM.

For the compound `COc1ccc(COc2cc3n(c(=O)n2)CC2CNCCN32)cc1C#N` (centres unmarked) [Example E278, 2-Methoxy-5-(((9-oxo-2,3,4,9,11,11a-hexahydro-1H-pyrazino[1′,2′:3,4]imidazo [1,2-c]pyrimidin-7-yl)oxy)methyl) benzonitrile], the IC50 is no more than 10 µM.

Regarding `O=c1nc(NCc2ccc(F)c(F)c2)cc2n1CC1C[S+]([O-])CCN21` (centres unmarked) [Example E375, 7-((3,4-Difluorobenzyl)amino)-3,4,11,11a-tetrahydropyrimido[6′,1′:2,3]imidazo[5,1-c][1,4]thiazin-9(1H)-one 2-oxide], the IC50 is no more than 10 µM. On to `Cc1ccc(Oc2c(F)cc(COc3cc4n(c(=O)n3)C[C@@H]3C[C@H](O)CN43)cc2F)cn1` [Example E385, (7S,8aS)-3-((3,5-Difluoro-4-((6-methylpyridin-3-yl)oxy)benzyl)oxy)-7-hydroxy-7,8,8a,9-tetrahydropyrrolo[1′,2′:3,4]imidazo[1,2-c]pyrimidin-1(6H)-one], for which the IC50 was no more than 10 µM.

`O=C1CN2c3cc(NCc4ccc(F)c(F)c4)nc(=O)n3CC2CN1` (centres unmarked) [Example E353, 7-((3,4-Difluorobenzyl)amino)-11,11a-dihydro-1H-pyrazino[1′,2′:3,4]imidazo[1,2-c]pyrimidine-3,9(2H,4H)-dione]: the IC50 is no more than 10 µM. `CC(=O)N1CCN2c3cc(NCc4ccc(F)c(C#N)c4)nc(=O)n3CC2C1` (centres unmarked) [Example E314, 5-(((2-Acetyl-9-oxo-2,3,4,9,11,11a-hexahydro-1H-pyrazino[1′,2′:3,4]imidazo[1,2-c]pyrimidin-7-yl)amino)methyl)-2-fluorobenzonitrile]: the IC50 is no more than 10 µM.

With `CS(=O)(=O)N1CCN2c3cc(NCc4ccc(F)c(F)c4)nc(=O)n3CC2C1` (centres unmarked) [Example E309, 7-((3,4-Difluorobenzyl)amino)-2-(methylsulfonyl)-3,4,11,11a-tetrahydro-1H-pyrazino[1′,2′:3,4]imidazo[1,2-c]pyrimidin-9(2H)-one], the IC50 was no more than 10 µM. `O=c1nc(OCc2ccc(Cl)c(Br)c2)cc2n1CC1CNCCN21` (centres unmarked) [Example E275, 7-((3-Bromo-4-chlorobenzyl)oxy)-3,4,11,11a-tetrahydro-1H-pyrazino[1′,2′:3,4] imidazo [1,2-c]pyrimidin-9(2H)-one]: the IC50 is no more than 10 µM. Regarding `O=c1nc(NCc2cccc(F)c2F)cc2n1CC1CSCCN21` (centres unmarked) [Example E377, 7-((2,3-Difluorobenzyl)amino)-3,4,11,11a-tetrahydropyrimido[6′,1′:2,3]imidazo[5,1-c][1,4]thiazin-9(1H)-one], the IC50 is no more than 10 µM.
